Experiment [1] concerns the target Tyk2 (Homo sapiens (Human), UniProt P29597). As to the kind of experiment: pSTAT4 Cell Assay (MSD, NK92 cells). Format: cell-based.
Experiment [2] has as its target JH2 domain of human Tyk2 (Homo sapiens (Human), UniProt P29597). Nature of the experiment: JH2 Biochemical Assay (TR-FRET probe displacement). Type of experiment: binding. A general note: Time-resolved FRET reads energy transfer from a long-lived donor to a nearby acceptor.
[3] abbreviates: JH2 domain of human Tyk2, TR-FRET probe displacement.
Setting [4] is: TR-FRET probe displacement, JH2 domain of human Tyk2.
[5] abbreviates: TR-FRET probe displacement, JH2 domain.

Read-outs that look alike come from different tables or passages of the source.

The values below come from patent publication US20260028365A1 (BIOGEN MA INC., priority 2022, published 2026).

Tyk2, sequence (P29597 whole entry, the tested form may be a part): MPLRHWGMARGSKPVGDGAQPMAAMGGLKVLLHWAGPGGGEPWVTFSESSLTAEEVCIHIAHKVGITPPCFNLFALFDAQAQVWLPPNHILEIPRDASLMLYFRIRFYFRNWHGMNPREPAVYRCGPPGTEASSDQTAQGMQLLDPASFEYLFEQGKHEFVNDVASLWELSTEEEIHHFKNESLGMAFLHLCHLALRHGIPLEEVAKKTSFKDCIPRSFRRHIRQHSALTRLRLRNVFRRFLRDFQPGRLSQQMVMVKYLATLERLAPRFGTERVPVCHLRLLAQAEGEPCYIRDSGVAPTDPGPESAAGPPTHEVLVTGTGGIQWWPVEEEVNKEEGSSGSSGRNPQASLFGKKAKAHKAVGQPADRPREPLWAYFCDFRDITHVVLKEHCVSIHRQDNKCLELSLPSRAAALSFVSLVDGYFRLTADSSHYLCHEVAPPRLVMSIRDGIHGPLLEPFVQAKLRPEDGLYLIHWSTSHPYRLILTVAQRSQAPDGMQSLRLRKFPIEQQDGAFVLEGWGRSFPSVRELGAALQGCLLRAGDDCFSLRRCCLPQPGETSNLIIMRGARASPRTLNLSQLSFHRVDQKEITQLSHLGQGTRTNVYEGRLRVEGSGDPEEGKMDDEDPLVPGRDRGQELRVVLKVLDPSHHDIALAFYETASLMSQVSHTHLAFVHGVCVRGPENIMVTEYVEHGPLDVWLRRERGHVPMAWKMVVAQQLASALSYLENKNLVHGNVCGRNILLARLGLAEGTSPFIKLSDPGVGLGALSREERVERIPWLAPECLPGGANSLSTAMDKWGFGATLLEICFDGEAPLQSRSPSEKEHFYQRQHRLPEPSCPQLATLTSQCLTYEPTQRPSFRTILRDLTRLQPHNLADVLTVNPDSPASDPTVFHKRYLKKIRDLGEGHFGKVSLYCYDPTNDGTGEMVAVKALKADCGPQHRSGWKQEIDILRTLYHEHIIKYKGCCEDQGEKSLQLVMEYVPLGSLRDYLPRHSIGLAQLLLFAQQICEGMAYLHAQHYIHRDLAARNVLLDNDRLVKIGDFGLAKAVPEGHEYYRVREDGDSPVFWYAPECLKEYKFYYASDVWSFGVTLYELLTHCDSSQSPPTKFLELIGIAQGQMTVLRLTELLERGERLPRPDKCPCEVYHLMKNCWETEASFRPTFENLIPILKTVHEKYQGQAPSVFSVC
JH2 domain of human Tyk2, sequence (P29597 575-876): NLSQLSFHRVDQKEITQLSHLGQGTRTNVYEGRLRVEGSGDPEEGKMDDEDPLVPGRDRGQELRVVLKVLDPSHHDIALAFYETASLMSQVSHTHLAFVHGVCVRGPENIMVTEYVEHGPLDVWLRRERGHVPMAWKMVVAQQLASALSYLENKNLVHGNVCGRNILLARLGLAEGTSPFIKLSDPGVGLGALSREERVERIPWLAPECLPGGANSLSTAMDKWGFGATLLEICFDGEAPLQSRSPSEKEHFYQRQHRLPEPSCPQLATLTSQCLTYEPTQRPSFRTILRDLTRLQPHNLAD

One may read the IC50 as the concentration that inhibits the measured activity by half. Higher therefore signals weaker potency in that assay. `COc1cnc(NC(C)=O)cc1Nc1cc(-c2cnn(CCN(C)C)c2)nc(C(C)(F)F)n1` [Example 380, N-(4-((2-(1,1-difluoroethyl)-6-(1-(2-(dimethylamino)ethyl)-1H-pyrazol-4-yl)pyrimidin-4-yl)amino)-5-methoxypyridin-2-yl)acetamide]: the IC50 in experiment [1] (MSD) is 10 to 100 nM; in experiment [2] (setting [3]) it was no more than 10 nM.
For the compound `COCCn1cnc(-c2cnc(NC(C)=O)cc2Nc2cc(C)nc(C(C)(F)F)n2)cc1=O` [Example 250, N-(4-((2-(1,1-difluoroethyl)-6-methylpyrimidin-4-yl)amino)-5-(1-(2-methoxyethyl)-6-oxo-1,6-dihydropyrimidin-4-yl)pyridin-2-yl)acetamide], the results for the IC50 in experiment [1] (MSD) and in experiment [2] (setting [4]) were 100 to 1000 nM and no more than 10 nM, respectively.
Consider `CC(=O)Nc1cc(Nc2ccnc(C(C)(F)F)n2)c(-c2ncc(CN(C)C)s2)cn1` [Example 782, N-(4-((2-(1,1-difluoroethyl)pyrimidin-4-yl)amino)-5-(5-((dimethylamino)methyl)thiazol-2-yl)pyridin-2-yl)acetamide], for which the IC50 in experiment [1] and in experiment [2] (setting [5]) was no more than 10 nM in each case.
`CC(=O)Nc1cc(Nc2cc(C)nc(C(C)(F)F)n2)c(OCc2ccc(F)cn2)cn1` [Example 125, N-(4-((2-(1,1-difluoroethyl)-6-methylpyrimidin-4-yl)amino)-5-((5-fluoropyridin-2-yl)methoxy)pyridin-2-yl)acetamide]: the IC50 in experiment [1] (MSD) was 10 to 100 nM; in experiment [2] (setting [4]) it was no more than 10 nM.
For `COc1cnc(NC(C)=O)cc1Nc1cc(-c2cnn(C(F)F)c2)nc(C(C)(F)F)n1` [Example 375, N-(4-((2-(1,1-difluoroethyl)-6-(1-(difluoromethyl)-1H-pyrazol-4-yl)pyrimidin-4-yl)amino)-5-methoxypyridin-2-yl)acetamide], the values for the concentration for half-maximal inhibition (IC50) in experiment [1] (MSD) and in experiment [2] (setting [3]) were 100 to 1000 nM and 10 to 100 nM, respectively.
For the compound `COC1(COc2cnc(NC(C)=O)cc2Nc2cc(C)nc(C(C)(F)F)n2)CCOCC1` [Example 337, N-(4-((2-(1,1-difluoroethyl)-6-methylpyrimidin-4-yl)amino)-5-((4-methoxytetrahydro-2H-pyran-4-yl)methoxy)pyridin-2-yl)acetamide], the IC50 in experiment [1] (MSD) was 10 to 100 nM; in experiment [2] (setting [4]), no more than 10 nM.
The matching figures for `COc1cc(-c2cnc(NC(C)=O)cc2Nc2cc(C)nc(C(C)(F)F)n2)nc(C)n1` [Example 155, N-(4-((2-(1,1-difluoroethyl)-6-methylpyrimidin-4-yl)amino)-5-(6-methoxy-2-methylpyrimidin-4-yl)pyridin-2-yl)acetamide]: 10 to 100 nM and no more than 10 nM.
The matching figures for `COc1cc(COc2cnc(NC(C)=O)cc2Nc2cc(C)nc(C(C)(F)F)n2)on1` [Example 322, N-(4-((2-(1,1-difluoroethyl)-6-methylpyrimidin-4-yl)amino)-5-((3-methoxyisoxazol-5-yl)methoxy)pyridin-2-yl)acetamide]: 10 to 100 nM and no more than 10 nM.
As to `COCCN(C)c1cnc(-c2cnc(NC(C)=O)cc2Nc2ccnc(C(C)(F)F)n2)cn1` [Example 866, N-(4-((2-(1,1-difluoroethyl)pyrimidin-4-yl)amino)-5-(5-((2-methoxyethyl)(methyl)amino)pyrazin-2-yl)pyridin-2-yl)acetamide], the half-inhibitory concentration (IC50) in experiment [1] is 10 to 100 nM; in experiment [2] (setting [5]), no more than 10 nM.
With `CCOCCn1ccc(-c2cnc(NC(C)=O)cc2Nc2cc(C)nc(C(C)(F)F)n2)n1` [Example 229, N-(4-((2-(1,1-difluoroethyl)-6-methylpyrimidin-4-yl)amino)-5-(1-(2-ethoxyethyl)-1H-pyrazol-3-yl)pyridin-2-yl)acetamide], the IC50 in experiment [1] (MSD) and in experiment [2] (setting [4]) was no more than 10 nM each time.
Take `CCc1cc(Nc2cc(NC(C)=O)ncc2-c2ccc(N3CCOCC3)nn2)nc(C(C)(F)F)n1` [Example 863, N-(4-((2-(1,1-difluoroethyl)-6-ethylpyrimidin-4-yl)amino)-5-(6-morpholinopyridazin-3-yl)pyridin-2-yl)acetamide]: the IC50 in experiment [1] and in experiment [2] (setting [5]) was no more than 10 nM throughout.
Consider `COCCOc1ccnc(Nc2cc(NC(C)=O)ncc2-c2ccn(C)n2)n1` [Example 550, N-(4-((4-(2-methoxyethoxy)pyrimidin-2-yl)amino)-5-(1-methyl-1H-pyrazol-3-yl)pyridin-2-yl)acetamide], for which the concentration for half-maximal inhibition (IC50) in experiment [1] (MSD) is 100 to 1000 nM; in experiment [2] (setting [3]), no more than 10 nM.
Taken in the same sequence, the figures for `CCOc1cnc(NC(C)=O)cc1Nc1cc(-c2cncc(OC)c2)nc(C(C)(F)F)n1` [Example 370, N-(4-((2-(1,1-difluoroethyl)-6-(5-methoxypyridin-3-yl)pyrimidin-4-yl)amino)-5-ethoxypyridin-2-yl)acetamide] were 10 to 100 nM and no more than 10 nM.
On to `CC(=O)Nc1cc(Nc2ccnc(C(C)(F)F)n2)c(-c2ccc(C(C)(C)O)cn2)cn1` [Example 852, N-(4′-((2-(1,1-difluoroethyl)pyrimidin-4-yl)amino)-5-(2-hydroxypropan-2-yl)-[2,3′-bipyridin]-6′-yl)acetamide], for which the IC50 in experiment [1] and in experiment [2] (setting [5]) was no more than 10 nM each time.
As for `CC(=O)Nc1cc(Nc2ccnc(C(C)(F)F)n2)c(-c2ccc3c(n2)CCC3=O)cn1` [Example 718, N-(4-((2-(1,1-difluoroethyl)pyrimidin-4-yl)amino)-5-(5-oxO6,7-dihydrO5H-cyclopenta[b]pyridin-2-yl)pyridin-2-yl)acetamide], the results for the IC50 in experiment [1] (MSD) and in experiment [2] (setting [3]) were 10 to 100 nM and no more than 10 nM, respectively.
As to `COCCn1cc(-c2cnc(NC(C)=O)cc2Nc2cc(C)nc(C(C)(F)F)n2)nn1` [Example 259, N-(4-((2-(1,1-difluoroethyl)-6-methylpyrimidin-4-yl)amino)-5-(1-(2-methoxyethyl)-1H-1,2,3-triazol-4-yl)pyridin-2-yl)acetamide], the IC50 in experiment [1] (MSD) and in experiment [2] (setting [4]) was no more than 10 nM throughout.
As to `CC(=O)Nc1cc(Nc2cc(C)nc(C(C)(F)F)n2)c(-c2cccc([C@@H]3CN(C)CCO3)n2)cn1` (single isomer, unassigned) [Example 641, (S)-N-(4′-((2-(1,1-difluoroethyl)-6-methylpyrimidin-4-yl)amino)-6-(4-methylmorpholin-2-yl)-[2,3′-bipyridin]-6′-yl)acetamide or (R)-N-(4′-((2-(1,1-difluoroethyl)-6-methylpyrimidin-4-yl)amino)-6-(4-methylmorpholin-2-yl)-[2,3′-bipyridin]-6′-yl)acetamide], the IC50 in experiment [1] (MSD) and in experiment [2] (setting [3]) was no more than 10 nM in each case.
`CC(=O)Nc1cc(Nc2cc(C(C)C)nc(C(C)(F)F)n2)c(O[C@H]2C[C@@H](F)C2)cn1` [Example 411, N-(4-((2-(1,1-difluoroethyl)-6-isopropylpyrimidin-4-yl)amino)-5-((1s,3s)-3-fluorocyclobutoxy)pyridin-2-yl)acetamide]: the results for the half-maximal inhibitory concentration (IC50) in experiment [1] (MSD) and in experiment [2] (setting [3]) were 10 to 100 nM and no more than 10 nM, respectively.
Turning to `COc1cnc(NC(C)=O)cc1Nc1cc(-c2ccc(F)c(C#N)c2)nc(C(C)(F)F)n1` [Example 394, N-(4-((6-(3-cyano-4-fluorophenyl)-2-(1,1-difluoroethyl)pyrimidin-4-yl)amino)-5-methoxypyridin-2-yl)acetamide], the concentration for half-maximal inhibition (IC50) is 100 to 1000 nM in experiment [1] (MSD) and no more than 10 nM in experiment [2] (setting [3]).
As to `CCOc1cnc(NC(=O)CCOC)cc1Nc1cc(C)nc(C(C)(F)F)n1` [Example 27, N-(4-((2-(1,1-difluoroethyl)-6-methylpyrimidin-4-yl)amino)-5-ethoxypyridin-2-yl)-3-methoxypropanamide], the IC50 in experiment [1] (MSD) is 100 to 1000 nM; in experiment [2] (setting [4]), no more than 10 nM.
On to `COc1cnc(NC(C)=O)cc1Nc1cc(-c2ccc(C#N)cc2)nc(C(C)(F)F)n1` [Example 393, N-(4-((6-(4-cyanophenyl)-2-(1,1-difluoroethyl)pyrimidin-4-yl)amino)-5-methoxypyridin-2-yl)acetamide], for which the 50% inhibitory concentration (IC50) in experiment [1] (MSD) is 10 to 100 nM; in experiment [2] (setting [3]) it was no more than 10 nM.
On to `CC(=O)Nc1cc(Nc2cc(C)nc(C(C)(F)F)n2)c(-c2cccc(F)n2)cn1` [Example 623, N-(4′-((2-(1,1-difluoroethyl)-6-methylpyrimidin-4-yl)amino)-6-fluorO[2,3′-bipyridin]-6′-yl)acetamide], for which the IC50 in experiment [1] (MSD) and in experiment [2] (setting [3]) was no more than 10 nM in each case.
On to `CC(=O)Nc1cc(Nc2cc(C)nc(C(C)(F)F)n2)c(-c2cccc(C3CCCCO3)n2)cn1` (stereo not drawn) [Example 647, N-(4′-((2-(1,1-difluoroethyl)-6-methylpyrimidin-4-yl)amino)-6-(tetrahydro2H-pyran-2-yl)-[2,3′-bipyridin]-6′-yl)acetamide], for which the IC50 in experiment [1] (MSD) and in experiment [2] (setting [3]) was no more than 10 nM throughout.
On to `CC(=O)Nc1cc(Nc2ccnc(C(C)(F)F)n2)c(-c2cnc(COC(F)F)cn2)cn1` [Example 692, N-(4-((2-(1,1-difluoroethyl)pyrimidin-4-yl)amino)-5-(5-((difluoromethoxy)methyl)pyrazin-2-yl)pyridin-2-yl)acetamide], for which the half-inhibitory concentration (IC50) in experiment [1] (MSD) is 100 to 1000 nM; in experiment [2] (setting [3]), no more than 10 nM.
`COc1cnc(NC(C)=O)cc1Nc1cc(-c2cnc(N3CCOCC3)nc2)nc(C(C)(F)F)n1` [Example 390, N-(4-((2-(1,1-difluoroethyl)-2′-morpholino-[4,5′-bipyrimidin]-6-yl)amino)-5-methoxypyridin-2-yl)acetamide]: the IC50 in experiment [1] (MSD) is 100 to 1000 nM; in experiment [2] (setting [3]) it was 10 to 100 nM.
The matching figures for `CC(=O)Nc1cc(Nc2cc(C)nc(C(C)(F)F)n2)c(-c2cn(C)nn2)cn1` [Example 607, N-(4-((2-(1,1-difluoroethyl)-6-methylpyrimidin-4-yl)amino)-5-(1-methyl-1H-1,2,3-triazol-4-yl)pyridin-2-yl)acetamide]: no more than 10 nM and no more than 10 nM.
Regarding `CC(=O)Nc1cc(Nc2cc(C)nc(C34CC(CO3)C4)n2)c(-c2ccc(COC(F)F)cn2)cn1` [Example 142, N-(4′-((2-(2-oxabicyclo[2.1.1]hexan-1-yl)-6-methylpyrimidin-4-yl)amino)-5-((difluoromethoxy)methyl)-[2,3′-bipyridin]-6′-yl)acetamide], the half-maximal inhibitory concentration (IC50) in experiment [1] (MSD) was 10 to 100 nM; in experiment [2] (setting [4]), no more than 10 nM.
